Assay results as given in PubChem BioAssay (NCI).
Several values for one entry are separate records, joined by “and”; a condition that tells them apart may be missing. Identical values can stand only once.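 These data come from cells grown in 96-well plates and exposed to compound for 48 hours at five concentrations. At the GI50, growth is halved. TGI: concentration producing complete growth inhibition.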

Legend:
Experiment in all cases: DTP human tumour cell line panel, 48 h
[1] = tested on: ACHN renal
[2] = tested on: CAKI-1 renal
[3] = tested on: K-562 leukemia
[4] = tested on: MOLT-4 leukemia
[5] = tested on: NCI-H460 lung
[6] = tested on: OVCAR-5 ovarian
[7] = tested on: SF-295 CNS
[8] = tested on: SF-539 CNS
[9] = tested on: SNB-75 CNS
[10] = tested on: U251 CNS

Structure (SMILES)	GI50 [1]	TGI [1]	GI50 [2]	TGI [2]	GI50 [3]	TGI [3]	GI50 [4]	TGI [4]	GI50 [5]	TGI [5]	GI50 [6]	TGI [6]	GI50 [7]	TGI [7]	GI50 [8]	TGI [8]	GI50 [9]	TGI [9]	GI50 [10]	TGI [10]
CCN(CC)c1ccc(/C=N/NC(=O)CSc2nc3ccccc3c(=O)n2CCc2ccc(S(N)(=O)=O)cc2)c(O)c1	1.75 µM	> 100 µM	1.84 µM	> 100 µM	1.75 µM	> 100 µM	0.653 µM	> 100 µM	0.595 µM	> 100 µM	4.4 µM	> 100 µM	4.01 µM	> 100 µM	2.42 µM	66.5 µM	3.43 µM	> 100 µM	1.44 µM	> 100 µM
COc1ccc2c(c1OC)C[C@@H]1c3c(cc4c(c3-2)OCO4)CCN1C		> 100 µM		> 100 µM		56.6 µM		47.4 µM		91.4 µM		> 100 µM		31.3 µM		50 µM		52.5 µM		> 100 µM
CC(C)(CN1CCCCC1)C(=O)/C=C/c1ccc(/C=C/C(=O)C(C)(C)CN2CCCCC2)cc1		0.669 µM		0.904 µM		0.375 µM		0.33 µM		1.96 µM		1.57 µM		1.68 µM		1.55 µM		1.82 µM		1.18 µM
CC(C)C1=CC(=O)C(C)(C2C(O)CC3(C)C4CC=C5C(CCC(OC6OC(CO)C(O)C(O)C6OC6OC(C)C(O)C(O)C6O)C5(C)C)C4(C)C(=O)CC23C)O1 (stereo not given)		> 100 µM		> 100 µM		> 100 µM		> 100 µM		> 100 µM		> 100 µM		> 100 µM		> 100 µM		> 100 µM		> 100 µM
CCC(C)CCOC(=O)c1ccc(N=Cc2ccc(C=Nc3ccc(C(=O)OCCC(C)CC)cc3)cc2)cc1 (stereo not given)		> 100 µM		> 100 µM		> 100 µM		> 100 µM		> 100 µM		> 100 µM		> 100 µM		> 100 µM		> 100 µM		> 100 µM
CC(N)C(Cc1ccc(Cl)cc1)c1ccc(Cl)cc1 (stereo not given)	4.85 µM	18.5 µM	11.8 µM	24.1 µM	3.05 µM	10.8 µM	13.6 µM	31.4 µM	5.55 µM	18.5 µM	12.4 µM	27.3 µM	10.4 µM	23.6 µM	13.3 µM	26.8 µM	3.76 µM	18.3 µM	12.3 µM	25.9 µM
CCN(Cc1ccc(C)cc1)c1ccc(CO)c(Cl)c1	10.1 µM	23.2 µM	0.721 µM	9.27 µM	2 µM	> 50.5 µM	17 µM	45.4 µM	0.306 µM	11.7 µM	0.171 µM	0.689 µM	1.01 µM	15.8 µM	14.2 µM	28.3 µM	4.8 µM	20.9 µM	0.867 µM	14.5 µM
CCN1C(=S)N(c2ccccc2)C2NC(=S)N(/N=C/C=C/c3ccccc3OC)C21 (stereo not given)	0.556 µM	> 100 µM	0.298 µM	> 100 µM	0.302 µM	> 100 µM	0.548 µM	> 100 µM	0.37 µM	> 100 µM	0.69 µM	> 100 µM	0.263 µM	> 100 µM	0.253 µM	0.732 µM	0.211 µM	4.36 µM	0.393 µM	> 100 µM
Cc1cc(NCCCCCCCCNc2cc(C)nc3cc(N)ccc23)c2ccc(N)cc2n1		> 100 µM		> 100 µM		16.3 µM		> 100 µM		49.5 µM		> 100 µM		42 µM		41.2 µM		69.1 µM		24.3 µM
O=C(Oc1cccc2cccnc12)c1cc2c(cc1Cl)SC(N(c1ccc(F)cc1)S(=O)(=O)c1ccc(Br)s1)=NS2(=O)=O	33.8 µM	> 100 µM	31.6 µM	97.6 µM	29.1 µM	> 100 µM	28.7 µM	> 100 µM	29.1 µM	> 100 µM	26.6 µM	94.3 µM	22.4 µM	69.7 µM	23.4 µM	75.2 µM	26.5 µM	93.5 µM	26 µM	95.6 µM
CC(C)(O)[C@@H]1CC[C@@]2(C)CCCC(O)C2(O)C1 (stereo not given in full)		> 100 µM		> 100 µM		> 100 µM		> 100 µM		> 100 µM		> 100 µM		> 100 µM		> 100 µM		> 100 µM		> 100 µM
O=c1[nH]c2ccccc2c2ccccc12	> 100 µM	> 100 µM	> 100 µM	> 100 µM	> 100 µM	> 100 µM	> 100 µM	> 100 µM	70.1 µM	> 100 µM	> 100 µM	> 100 µM	> 100 µM	> 100 µM	> 100 µM	> 100 µM	> 100 µM	> 100 µM	> 100 µM	> 100 µM
O=Nc1ccc(O)c(=O)cc1	0.906 µM	2.63 µM	0.936 µM	5.8 µM	0.498 µM	> 100 µM	0.821 µM	20.8 µM	4.76 µM	23.5 µM	5.49 µM	17.8 µM	26.1 µM	79.2 µM	2.67 µM	7.48 µM	3.77 µM	17.2 µM	3.08 µM	11.6 µM
CCCCCN(CCCCC)C(=O)[C@@H](CCC(=O)O)NC(=O)c1cc2ccccc2[nH]1		> 100 µM		67.6 µM		> 100 µM		46.6 µM		> 100 µM		> 100 µM		> 100 µM		49.4 µM		61.8 µM		78.1 µM
O=C(/C=C/c1cc(Cl)cc(Cl)c1O)c1cccc(O)c1		> 100 µM		> 100 µM		> 100 µM		46.6 µM		> 100 µM		28.3 µM		28.5 µM		73.3 µM		94.4 µM		80.4 µM
O=S(=O)(NCCCNc1nccc(-c2c(-c3ccc(O)cc3)nc3sccn23)n1)c1ccc(F)cc1	2.09 µM	> 100 µM	2.88 µM	> 100 µM	1.67 µM	> 100 µM	2.47 µM	8.81 µM	2.37 µM	7.18 µM	5.58 µM	> 100 µM	1.99 µM	4.56 µM	2.04 µM	13.9 µM	1.03 µM	7.91 µM	2.92 µM	12.4 µM
CN(c1ncccc1CNc1nc(Nc2ccc3c(c2)CC(=O)N3)ncc1C(F)(F)F)S(C)(=O)=O	2.72 µM and 3.31 µM	> 100 µM	2.15 µM and 2.87 µM	> 52.4 µM	2.97 µM and 3.45 µM	> 100 µM	2.9 µM and 2.67 µM	7.47 µM and 7.55 µM	2.14 µM and 2.95 µM	7.32 µM and > 10 µM	2.22 µM and 2.7 µM	60.3 µM and > 10 µM	2.2 µM and 2.55 µM	> 100 µM	1.96 µM and 2.35 µM	5.18 µM and 6.93 µM	1.33 µM and 1.51 µM	4.78 µM and 4.8 µM	2.17 µM and 2.76 µM	> 47.3 µM
O=C1CSCc2sccc21		> 100 µM		> 100 µM		> 100 µM		> 100 µM		> 100 µM		> 100 µM		> 100 µM		> 100 µM		> 100 µM		> 100 µM
